# Measured values as given in patent publication US20250084380A1, “ARTIFICIAL BRAIN TISSUE” (priority 2016, published 2025).
# What was measured:
# [1] = test system: hiPSC derived 3D neural culture; experiment: Local field potential recordings of hiPSC-derived 3D neural culture with activity inhibitors; format: cell-based, human; conditions: for spontaneous and inducible activity (LFP): CNQX 50 μM, AP5 250 μM together
# microglia [2] = experiment: Suppression of microglia in 2D primary astrocytic cultures; format: cell-based, mice
# Source text: In addition to primary microglia, an immortalized microglial cell line (N9) was also used. It was noted that this line has a fast proliferation rate and appeared to suppress neuronal cultures, so primary cell lines were maintained as a source of microglia. In general, it is thought that microglia inhibit growth of astrocytic populations. Microglia proliferation is strictly regulated by colony-stimulating factor 1 and its receptor on microglia membranes. Without wishing to be held to a particular theory, it was contemplated that if the receptor for CSF1 growth factor was inhibited, the growth of microglia in astrocytic population would be inhibited. Accordingly, a 2 week experiment was performed in two dimensional (2D) culture conditions to see if microglial growth could be inhibited. For this experiment, the glial media that was supplied with 1 uM supplement of CSF1R inhibitors was used. Media was changed every second day in 96 well plates with 10.000 mice primary astrocytic cultures. […] Number of microglia was determined in cells treated with CSF1R inhibitor or control (FIG. 1, panel N) and further evaluated via WST-1 assay (FIG. 1, panel O).
# [3] = test system: primary murine striatal neurons, astrocytes, and microglia; experiment: 3D tri-culture intracerebral hemorrhage model with necrostatin-1 treatment; format: cell-based, mouse; conditions: for total cell number / DNA content (DNA quantification): nec-1 conditions, 24 hour; for ROS / reactive species level vs untreated samples: nec-1 groups, 4 hours post-injury, 250 mol/mL nec-1 for 15 minutes prior to injury
# Method: Hemorrhage injuries were performed at the Neuroscience Center at Massachusetts General Hospital. Samples were transported to the Center, incubated for one hour at 37° C., and then injected with 10 μL of mouse blood and incubated for another hour before being returned to the Tufts University Biomedical Engineering Department. Samples were evaluated at 4 and 24 hours post-injury. For necrostatin-1 treatment, samples were incubated with […] necrostatin-1 for 15 minutes prior to performing a hemorrhage injury.
# For all studies, groups included: untreated controls, sham, sham plus nec-1 treatment, hemorrhage (ICH) or ICH plus nec-1 treatment samples.
# Cell viability was assessed with a Live/Dead assay, which uses a mixture of calcein and propidium iodide stains (1.2 μL of calcein (reconstituted in DMSO) and 10 μL of propidium iodide (“PI”) per 1 mL of final stain solution). Samples were washed with PBS 2-3 times and any remaining PBS was aspirated. Sponges were transferred to a 96 well plate, 100 μL of calcein/PI stain solution was added to each sample, and they were incubated at 37° C., covered in aluminum foil for 30 minutes. The stain solution was then aspirated, samples were washed with PBS 2-3 times, and then imaged using a confocal microscop with lasers of wavelengths of […] (to detect calcein staining) and […] (to detect PI staining).
# DNA was quantified using a PicoGreen assay. To prepare samples for DNA quantification, they were first washed once with PBS, followed by addition of 100 μL of 0.05% Triton-X to cover the sponge. Samples were stored at −20° C. until use. For measurements, samples were thawed at room temperature and homogenized with scissors. Supernatant was collected and placed in a tube, on ice. Enough 1×TE Buffer needed for a dilution of 100 μL 1×TE buffer and 200 μL supernatant for each sample was prepared, and 4 mL of 1×TE buffer was prepared for the standards. 20×TE buffer was diluted 1:20 in diH20 to get 1×TE buffer. 1×TE buffer was then mixed with sample supernatants in separate 1.5 mL tubes. 100 μL of each sample was added to a 96-well plate, in triplicate. Standards were prepared by mixing the DNA working solution and the TE buffer to create 400 μL solutions with the following DNA concentrations: 2000 ng/mL, 1000 ng/mL, 500 ng/mL, 200 ng/mL, 100 ng/mL, 50 ng/mL, 20 ng/mL, and 0 ng/mL. Once samples were ready for analysis and the fluorescence plate reader was warmed and ready, PicoGreen stain was added to each sample. PicoGreen stain was prepared by making a 200-fold dilution of the stock PicoGreen stain in 1×TE Buffer for a final volume of 100 μL per sample plus 30%. The PicoGreen solution was protected from light and 100 μL of the diluted PicoGreen solution was added to each sample, then incubated at room temperature for 2-3 minutes. Fluorescence of samples was read using a plate-reader with 485 nm excitation and 538 nm emission. Fluorescence readings were converted into cell counts by using standard calculations to determine DNA content of each sample, which was then divided by 5.5 pg, which is the average mass of DNA in neurons (Moroz and Kohn 2013).
# LDH assays were run on all samples and standards in duplicate, using a commercially available kit. An NADH standard was prepared using the stock NADH standard solution and the LDH assay buffer to achieve 50 μL each of the following concentrations: 0, 2.5, 5, 7.5, 10, and 12.5 nmole per 50 μL. 500 μL of LDH assay buffer was added to each sample for every 100 mg of tissue and samples were then homogenized with scissors, on ice, prior to centrifuging for 15 min at 10,000 xg and 4° C. 50 μL of the supernatant was added into wells in a 96 well plate (in duplicate) and LDH buffer was added to a total volume of 50 μL per well. For each reaction (sample and standards), 2 μL of LDH substrate mix was added to 48 μL of LDH assay buffer to create a Master Reaction Mix. 50 µL of reaction mix was added to each well and contents were mixed by pipetting up and down. […]
# microglia [4] = experiment: Microglia activation with LPS treatment; format: cell-based, rat/mouse; conditions: 100 ng/mL LPS; 3 days
# Method: DAPI was used as a nuclear counterstain. Microglia were also assessed for their ability to activate upon or following treatment with lipopolysaccharide (LPS) (FIG. 1, panel G), and further analyzed post-treatment for expression of inducible nitric oxide synthase (iNOS) (FIG. 1, panel H) and interleukin 1-beta (IL1-beta) (FIG. 1, panel I). Microglia activation ability with LPS (lipopolysaccharide) treatment was performed with 100 ng/mL of LPS to activate microglia cells (20,000 cells per well, 96 well plate).
compound,measurement,setting,value
"N[C@H](CCCP(=O)(O)O)C(=O)O [AP-5, (2R)-amino-5-phosphonopentanoate]",spontaneous and inducible activity (LFP),[1],partially blocked
"N#Cc1cc2c(cc1[N+](=O)[O-])=NC(=O)C(=O)N=2 [CNQX, 6-cyano-7-nitroquinoxaline-2,3-dione]",spontaneous and inducible activity (LFP),[1],partially blocked
"NC1=N[C@H](O)[C@H]2[C@H]3O[C@]4(O)O[C@@H]([C@@H](O)[C@@]2(N1)[C@@H]4O)[C@]3(O)CO [TTX, tetrodotoxin]",activity (LFP),[1],blocked
O=P(O)(O)C(Cl)(Cl)P(=O)(O)O [clodronic acid],suitability to suppress microglial growth and activity,microglia [2],found unacceptable
"CN1C(=O)C(Cc2c[nH]c3ccccc23)NC1=S (centres unmarked) [necrostatin-1, Necrostatin-1]","reactive species (ROS-RNS assay), differences between groups",[3]; 24 hours post-injury,No significant differences
same,LDH activity vs the two sham groups,[3]; ICH+nec-1,statistically higher levels of LDH activity
same,LDH activity,"[3]; ICH+nec-1 vs ICH, 24 hours",slightly lower level
same,reactive species (ROS-RNS assay),[3]; Sham+nec-1 compared to sham alone,significantly lower level of reactive species
same,total cell number / DNA content (DNA quantification),[3],higher DNA content
same,total cell number / DNA content (DNA quantification),[3]; listed as nec-1,significantly more cells were counted in nec-1 conditions
same,ROS / reactive species level vs untreated samples,[3],statistically significant decrease in the amount of reactive species
same,ROS / reactive species level vs untreated samples,[3]; listed as nec-1,significantly lower ROS levels
same,cell count and viability,"[3]; sham+nec-1, 24 hours",highest cell count and viability after 24 hours
lipopolysaccharide [LPS],microglia activation,microglia [4],efficient to activate microglia
